Experimental data: US9271991B2, “Trimegestone (TMG) for treatment of preterm birth” (Dignity Health, priority 2010, dated 2016)
Several values for one entry are separate records, joined by “and”; a condition that tells them apart may be missing. Equal values may be shown once.

Tests used:
[1] = test system: pregnant rats (term delivery); test: Delay of term delivery in pregnant rats; format: in vivo, Sprague-Dawley rats; conditions: pregnant rats
Description: Timed-pregnant Sprague-Dawley rats (200-250 g) from Charles-River Laboratories (Wilmington, Mass., USA) were delivered to our animal care facilities on day 15 of gestation (day 1 being the day when a sperm plug was observed). The animals were housed separately, with free access to food and water and maintained on a constant 12-hour light-dark cycle. Control pregnant rats were spontaneously delivering on day 22 of gestation. The animals were randomly allocated into groups and sacrificed by carbon dioxide inhalation on day 5 postpartum or on day 25 of gestation in the groups with delayed delivery.
Pregnant rats (N=6 per group) were treated, when not otherwise mentioned, from day 20 of gestation until delivery. Single daily treatments were performed at 8 am and twice a day treatments at 8 am and 8 pm. Treatment began daily on day 20 of gestation with vehicles or: a) Topical P4 at various doses (4-30 mg/day, vehicle (v)=fish oil) or topical TMG ([…], v=fish oil; b) Subcutaneous (s.c.) P4 (0.5-4 mg/day, v=sesame oil) or s.c. TMG (0.5-2 mg/day, v=benzyl benzoate (BB) and castor oil (CO), 1:4). Delivery times were observed.
Subcutaneous treatments. All daily injections were by the subcutaneous route (s.c) in […] for the P4 treatments and benzyl benzoate (BB, 1 part): castor oil (CO, 4 parts) for the TMG group. P4 and TMG had dose ranges of 0.5 mg-4 mg per day and 0.5 mg-2 mg per day, respectively. Vehicles only are used in the control groups.
Topical treatments. Topical P4 and TMG (in fish oil and benzyl benzoate:castor oil (1:4), respectively) treatments were applied to the shaved back of the rat twice a day For topical treatments of P4 and TMG, dose range from 2 mg-30 mg per day and 0.005 to 0.5 mg per day, respectively.
Times of delivery of controls and treatment groups were determined as hours after 8 a.m. on day 22 of gestation. […] Delays in delivery less than 80 hours were calculated as less than 100% inhibition. The expulsion of a single pup was noted as delivery. Control groups spontaneously delivered on day 22 of gestation.
The Student's t test was used to compare the treatment groups with its specific control groups to determine the differences in delivery times. A 2-tailed probability value of P<0.05 was considered statistically significant.

[2] = test system: pregnant guinea pigs (preterm delivery); test: PGE2-induced preterm delivery in pregnant guinea pigs; format: in vivo, Hartley guinea pigs; conditions: TMG 4 mg/day s.c. days 44-47; PGE2 3 mg/day days 46, 47; sacrifice day 48
Description: Pregnant guinea pigs, another model of pregnancy are also utilized as they more closely resemble the endocrine control of human pregnancy with progesterone levels in pregnancy maintained by the placenta as opposed to the ovaries, which is observed in pregnant rats.
Pregnant Hartley guinea pigs arrived at our facilities at 31-35 days gestation and housed in pairs, with free access to food and water and also maintained on a constant 12-hour light-dark cycle. The animals were euthanized with a combination of xylazine (Gemini; Burns Veterinary Supply Inc, Rockville Center, N.Y.) and ketamine HCL (Ketaset; Fort Dodge Laboratories Inc, Fort Dodge, Iowa). All procedures were approved by the Animal Care and Use Committee of the St. Joseph's Hospital and Medical Center in Phoenix, Ariz.
Pregnant guinea pigs (N=4-6 per group) were allocated into 4 groups (Vehicle (v) only, TMG only, PGE2 only, PGE2+TMG). PGE2 administration (3 mg/day s.c, v=saline) began daily on day 46 to day 47 of gestation. TMG administration (4 mg/day s.c v=BB:CO) began daily on day 44 until day 47 of gestation. All guinea pigs were sacrificed on day 48.

[3] = s.c. single daily treatment from day 20 of gestation
[4] = topical twice a day from day 20 of gestation

Row | Structure (SMILES) | dose for complete block of delivery (80 hour delay, 100 percent inhibition), subcutaneous [1, 3] [mg] | dose for complete block of delivery, subcutaneous [1, 3] [mg/day] | dose for complete block of delivery (80 hour delay, 100 percent inhibition), topical [1, 4] [mg] | dose for complete block of delivery, topical [1, 4] [mg/day] | guinea pigs delivered (preterm) / treated, substance alone [2]
1 | CC(=O)[C@H]1CC[C@H]2[C@@H]3CCC4=CC(=O)CC[C@]4(C)[C@H]3CC[C@]12C [P4, progesterone] | 2 | 2 | 15 | 15 | 
2 | CCCCC[C@H](O)/C=C/[C@H]1[C@H](O)CC(=O)[C@@H]1C/C=C\CCCC(=O)O [PGE2, prostaglandin E2] |  |  |  |  | 2/3 and 4/6
